Laboratory results published in patent publication US9938269B2, “Inhibitor compounds of phosphodiesterase type 10A” (ABBVIE INC., priority 2011, dated 2018).
Counter-ions that a name gives are not always drawn.

Experiments:
[1] = Determination of the microsomal half-life, rat liver microsomes; conditions: rat, liver microsomes, pH 7.4
PDE10A (human) = biological target: T1, PDE10A (human) (Homo sapiens, UniProt Q9Y233); assay: Measurement of PDE activity (HTRF cAMP kit), human PDE10A; type: biochemical; conditions: PDE enzymatic reaction, substrate 20 nM for PDE10, 60 minutes at 29 C
T1 construct: purchased BPS Bioscience
T1 sequence (Q9Y233 whole entry): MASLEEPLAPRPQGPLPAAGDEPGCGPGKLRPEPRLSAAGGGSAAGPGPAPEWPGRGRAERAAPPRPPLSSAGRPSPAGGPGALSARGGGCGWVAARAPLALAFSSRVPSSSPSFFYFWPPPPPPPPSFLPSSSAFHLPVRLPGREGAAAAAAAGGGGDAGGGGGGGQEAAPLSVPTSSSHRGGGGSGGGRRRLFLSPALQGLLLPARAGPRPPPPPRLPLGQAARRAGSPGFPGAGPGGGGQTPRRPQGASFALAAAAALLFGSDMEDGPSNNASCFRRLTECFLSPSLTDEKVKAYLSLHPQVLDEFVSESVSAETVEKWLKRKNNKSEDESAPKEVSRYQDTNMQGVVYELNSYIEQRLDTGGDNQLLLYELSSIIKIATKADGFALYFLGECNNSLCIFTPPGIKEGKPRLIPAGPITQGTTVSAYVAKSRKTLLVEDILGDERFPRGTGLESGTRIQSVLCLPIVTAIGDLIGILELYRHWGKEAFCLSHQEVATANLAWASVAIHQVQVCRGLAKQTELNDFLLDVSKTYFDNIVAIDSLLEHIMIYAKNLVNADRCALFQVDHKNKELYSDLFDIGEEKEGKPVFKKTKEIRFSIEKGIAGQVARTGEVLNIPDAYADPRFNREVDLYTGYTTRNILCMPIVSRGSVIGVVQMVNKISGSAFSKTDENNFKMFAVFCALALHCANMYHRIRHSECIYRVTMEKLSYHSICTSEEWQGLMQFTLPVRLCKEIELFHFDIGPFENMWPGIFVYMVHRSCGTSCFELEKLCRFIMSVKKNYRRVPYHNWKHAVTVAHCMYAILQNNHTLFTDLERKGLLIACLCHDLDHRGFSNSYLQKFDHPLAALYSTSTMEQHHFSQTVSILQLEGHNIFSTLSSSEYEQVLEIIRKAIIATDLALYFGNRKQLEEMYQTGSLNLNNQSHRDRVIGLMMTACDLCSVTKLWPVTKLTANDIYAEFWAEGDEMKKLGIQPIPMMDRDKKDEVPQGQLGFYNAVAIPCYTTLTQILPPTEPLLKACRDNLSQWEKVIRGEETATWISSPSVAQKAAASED
Outline: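 Recombinant human PDE10A (10–250 pM range across PDEs) with 20 nM cAMP substrate in 20 mM Tris-HCl pH 7.5, 10 mM MgCl2, 0.1% BSA, compound pre-mixed with enzyme. Ran 60 min at 29 °C. Remaining cAMP read by HTRF, converted to % of uninhibited activity, and IC50 fitted.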

[2] = Determination of the microsomal half-life, human liver microsomes; conditions: for microsomal CLint at 0.5 μM: human, liver microsomes, pH 7.4

Compound | microsomal CLint at 0.5 μM [1] [µL/min/mg] | IC50 (PDE10A (human)) [nM] | microsomal CLint at 0.5 μM [2] [µL/min/mg] | Human mCl (mikrosomal clearance) ([2]; human liver microsomes, 0.5 μM test substance, 0.25 mg microsomal protein, pH 7.4, 37° C., NADPH)
O=C1c2c(-c3ccc(F)cc3)ccc(F)c2CN1CCc1cn2ccccc2n1 [Example 379, 4-Fluoro-7-(4-fluoro-phenyl)-2-(2-imidazol[1,2-a]pyridin-2-yl-ethyl)-2,3-dihydro-isoindol-1-one] | > 220 | 100 to 200 | 100 to 220 | –
Cc1cnc(CCN2Cc3nccc(N4CCOCC4)c3C2=O)cc1C [compound 520, 6-[2-(4,5-Dimethyl-2-pyridyl)ethyl]-4-morpholino-7H-pyrrolo[3,4-b]pyridin-5-one] | 100 to 220 | 100 to 200 | < 100 | –
O=C1c2c(cccc2-c2ccc(C(F)(F)F)nc2)CN1CCc1ccc2ccccc2n1 [Example 98, 2-(2-Quinolin-2-yl-ethyl)-7-(6-trifluoromethyl-pyridin-3-yl)-2,3-dihydro-isoindol-1-one] | < 100 | 200 to 500 | 100 to 220 | –
O=C1c2c(cccc2-c2cccnc2)CN1CCc1nc2ncccc2[nH]1 [Example 253, 2-[2-(1H-Imidazo[4,5-b]pyridin-2-yl)-ethyl]-7-pyridin-3-yl-2,3-dihydro-isoindol-1-one] | < 100 | 200 to 500 | < 100 | –
COc1ccc(-c2ccc(F)c3c2C(=O)N(CCc2cn4ccccc4n2)C3)cc1 [Example 380, 4-Fluoro-2-(2-imidazo[1,2-a]pyridin-2-yl-ethyl)-7-(4-methoxy-phenyl)-2,3-dihydro-isoindol-1-one] | > 220 | 200 to 500 | 100 to 220 | –
[2H]c1nc2c(c(N3C([2H])([2H])C([2H])([2H])OC([2H])([2H])C3([2H])[2H])c1[2H])C(=O)N(C([2H])([2H])Cc1nc3c([2H])c([2H])c([2H])c([2H])c3c([2H])c1[2H])C2([2H])[2H] [compound 510, 2,3,7,7-Tetradeuterio-6-[1,1-dideuterio-2-(3,4,5,6,7,8-hexadeuterio-2-quinolyl)ethyl]-4-(2,2,3,3,5,5,6,6-octadeuteriomorpholin-4-yl)pyrrolo[3,4-b]pyridin-5-one] | > 220 | < 100 | 100 to 220 | –
O=C1c2c(N3CCOCC3)ccnc2CN1CCc1nc2ccccc2s1 [Example 377, 6-(2-Benzothiazol-2-yl-ethyl)-4-morpholin-4-yl-6,7-dihydro-pyrrolo[3,4-b]pyridin-5-one] | < 100 | < 100 | < 100 | –
O=C1c2c(-c3ccoc3)ccnc2CN1CCc1cn2ccccc2n1 [compound 414, 4-Furan-3-yl-6-(2-imidazo[1,2-a]pyridin-2-yl-ethyl)-6,7-dihydro-pyrrolo[3,4-b]pyridin-5-one] | < 100 | < 100 | < 100 | –
Cc1ccc2c(c1)nc(CCN1Cc3nccc(-c4ccnn4C)c3C1=O)n2C [compound 540, 6-[2-(1,5-Dimethylbenzimidazol-2-yl)ethyl]-4-(2-methylpyrazol-3-yl)-7H-pyrrolo[3,4-b]pyridin-5-one] | < 100 | < 100 | < 100 | –
COc1ccc(-c2cccc3c2C(=O)N(CCc2ccc4ccccc4n2)C3)cn1 [Example 54, 7-(6-Methoxy-pyridin-3-yl)-2-(2-quinolin-2-yl-ethyl)-2,3-dihydro-isoindol-1-one] | 100 to 220 | < 100 | 100 to 220 | –
[2H]c1nc2c(c(N3CCOCC3)c1[2H])C(=O)N(CC([2H])([2H])c1nc3c([2H])c([2H])c([2H])c([2H])c3c([2H])c1[2H])C2([2H])[2H] [compound 513, 2,3,7,7-Tetradeuterio-6-[2,2-dideuterio-2-(3,4,5,6,7,8-hexadeuterio-2-quinolyl)ethyl]-4-morpholino-pyrrolo[3,4-b]pyridin-5-one] | > 220 | < 100 | 100 to 220 | –
O=C1c2c(cccc2N2C[C@@H]3C[C@H]2CN3)CN1CCc1ccc2ccccc2n1 [Example 101, 7-(1S,4S)-2,5-Diaza-bicyclo[2.2.1]hept-2-yl-2-(2-quinolin-2-yl-ethyl)-2,3-dihydro-isoindol-1-one] | > 220 | 200 to 500 | < 100 | –
Cc1ccc(CCN2Cc3nccc(N4CCOCC4)c3C2=O)nc1C [compound 554, 6-[2-(5,6-Dimethyl-2-pyridyl)ethyl]-4-morpholino-7H-pyrrolo[3,4-b]pyridin-5-one] | 100 to 220 | < 100 | 100 to 220 | –
Cc1ccc(CCN2Cc3nccc(-c4ccncc4)c3C2=O)nc1 [compound 481, 6-[2-(5-Methyl-2-pyridyl)ethyl]-4-(4-pyridyl)-7H-pyrrolo[3,4-b]pyridin-5-one trifluoroacetate] | < 100 | 200 to 500 | < 100 | –
O=C1c2cccc(-c3cc[nH]n3)c2CN1CCc1ccc2ccccc2n1 [Example 200, 4-(1H-Pyrazol-3-yl)-2-(2-quinolin-2-yl-ethyl)-2,3-dihydro-isoindol-1-one] | > 220 | < 100 | 100 to 220 | –
O=C1c2c(cccc2-c2ccc3nc[nH]c3c2)CN1CCc1ccc2ccccc2n1 [Example 11, 7-(3H-Benzoimidazol-5-yl)-2-(2-quinolin-2-yl-ethyl)-2,3-dihydro-isoindol-1-one trifluoroacetate] | < 100 | < 100 | < 100 | –
COc1ccc(N2CCOCC2)c2c1CN(CCc1nc3ccccc3n1C)C2=O [Example 371, 4-Methoxy-2-[2-(1-methyl-1H-benzoimidazol-2-yl)-ethyl]-7-morpholin-4-yl-2,3-dihydro-isoindol-1-one] | < 100 | < 100 | > 220 | –

Further lines, results first:

microsomal CLint at 0.5 μM [1] [µL/min/mg] | IC50 (PDE10A (human)) [nM] | microsomal CLint at 0.5 μM [2] [µL/min/mg] | Human mCl (mikrosomal clearance) ([2]; human liver microsomes, 0.5 μM test substance, 0.25 mg microsomal protein, pH 7.4, 37° C., NADPH) | Compound
> 220 | < 100 | 100 to 220 | – | O=C1c2c(N3CCC(CF)C3)ccnc2CN1CCc1nc2ccccc2s1 (stereo not drawn) [compound 387, 6-[2-(1,3-Benzothiazol-2-yl)ethyl]-4-[3-(fluoromethyl)pyrrolidin-1-yl]-7H-pyrrolo[3,4-b]pyridin-5-one]
< 100 | < 100 | < 100 | – | O=C1c2c(N3CCOCC3)ccnc2CN1CCc1nc2ccccn2n1 [Example 227, 4-Morpholin-4-yl-6-(2-[1,2,4]triazolo[1,5-a]pyridin-2-yl-ethyl)-6,7-dihydro-pyrrolo[3,4-b]pyridin-5-one]
< 100 | < 100 | < 100 | – | Cc1ccc2c(c1)nc(CCN1Cc3nccc(-c4cncnc4)c3C1=O)n2C [compound 535, 6-[2-(1,5-Dimethyl-1H-benzoimidazol-2-yl)-ethyl]-4-pyrimidin-5-yl-6,7-dihydro-pyrrolo[3,4-b]pyridin-5-one]
100 to 220 | < 100 | > 220 | – | Cn1c(CCN2Cc3cccc(-c4ccncc4)c3C2=O)nc2ccccc21 [Example 195, 2-[2-(1-Methyl-1H-benzoimidazol-2-yl)-ethyl]-7-pyridin-4-yl-2,3-dihydro-isoindol-1-one]
< 100 | < 100 | < 100 | – | CN1CCN(c2ccnc3c2C(=O)N(CCc2ccc4ccccc4n2)C3)CC1 [Example 138, 4-(4-Methyl-piperazin-1-yl)-6-(2-quinolin-2-yl-ethyl)-6,7-dihydro-pyrrolo[3,4-b]pyridin-5-one]
< 100 | < 100 | < 100 | – | O=C1c2c(-c3cncnc3)ccnc2CN1CCc1ccc2ccccc2n1 [Example 166, 4-Pyrimidin-5-yl-6-(2-quinolin-2-yl-ethyl)-6,7-dihydro-pyrrolo[3,4-b]pyridin-5-one]
< 100 | < 100 | – | ◯ | O=C1c2c(N3CCOCC3)ccnc2CN1CCc1cn2ccsc2n1 [compound 425, 6-(2-Imidazo[2,1-b]thiazol-6-ylethyl)-4-morpholino-7H-pyrrolo[3,4-b]pyridin-5-one]
100 to 220 | < 100 | < 100 | – | CC(C)c1ccc(CCN2Cc3nccc(N4CCOCC4)c3C2=O)nc1 [compound 401, 6-[2-(5-Isopropyl-2-pyridyl)ethyl]-4-morpholino-7H-pyrrolo[3,4-b]pyridin-5-one]
< 100 | < 100 | < 100 | – | COc1ccc(-c2cn[nH]c2)c2c1CN(CCc1cn3ccccc3n1)C2=O [Example 372, 2-(2-Imidazo[1,2-a]pyridin-2-yl-ethyl)-4-methoxy-7-(1H-pyrazol-4-yl)-2,3-dihydro-isoindol-1-one]
100 to 220 | < 100 | < 100 | – | COc1ccc(-c2cccnc2)c2c1C(=O)N(CCc1cn3ccccc3n1)C2 [compound 456, 2-(2-Imidazo[1,2-a]pyridin-2-yl-ethyl)-7-methoxy-4-pyridin-3-yl-2,3-dihydro-isoindol-1-one trifluoroacetate]
< 100 | < 100 | 100 to 220 | – | CCc1ccn2cc(CCN3Cc4nccc(N5CCOCC5)c4C3=O)nc2c1 [compound 555, 6-[2-(7-Ethylimidazo[1,2-a]pyridin-2-yl)ethyl]-4-morpholino-7H-pyrrolo[3,4-b]pyridin-5-one]
100 to 220 | < 100 | 100 to 220 | – | O=C1c2c(-c3ccncc3)ccc(F)c2CN1CCc1cn2ccccc2n1 [Example 280, 4-Fluoro-2-(2-imidazo[1,2-a]pyridin-2-yl-ethyl)-7-pyridin-4-yl-2,3-dihydro-isoindol-1-one]
